Laboratory results reported in US8183230B2, “Antimicrobial preservatives to achieve multi-dose formulation using beta-cyclodextrins for liquid dosage forms” (priority 2004, dated 2012).

Columns and labels:
[1] = Solubility analysis (solubility method) for binding constant with SBE-CD
Method: Traditional solubility methods were performed initially to determine the solubility and binding constants of compound of Formula Ia and preservative with SBE-CD.
Binding was calculated for meta-cresol using solubility analysis. The experiment was performed at different concentrations of compound of Formula Ia to determine if there was any effect from the presence of drug in solution on the meta-cresol binding constant. Meta-cresol solubility was measured in excess (saturated) meta-cresol and the equilibrium binding constant was calculated using the following equation:
[formula] Where St is the total solubility of meta-cresol, s0 is the inherent solubility of meta-cresol, Lt is the total concentration of SBE-CD (ligand) and K11 is the equilibrium binding constant of meta-cresol assuming a 1 to 1 binding stoichiometry.

[2] = Equilibrium dialysis method for determining binding constants
Source text: In the present invention, the method to determine binding constants utilizes equilibrium dialysis in the development of a multi-use parenteral formulation containing SBE-CD and a preservative. In particular, the method was applied in developing a parenteral formulation comprising the compound of Formula Ia, a cyclodextrin (SBE-CD) and a preservative (meta-cresol). This approach is applicable to compounds other than the compound of Formula Ia in developing parenteral formulations and is within the scope of this invention. […] The significance of this procedure is its ability to measure the binding constant of multiple compounds competing for binding with the cyclodextrin. The experimental dialysis data also provides an easily interpreted representation of binding in the formulation by visualizing the degree of interaction by the equilibrium established following dialysis.
Equilibrium dialysis permits calculation of binding constants by modeling the resultant diffusion rate across a semi-permeable membrane with an equilibrium end point. Equilibrium dialysis is performed by allowing the substrate in a solution containing bound substrate and ligand in a donor compartment of an equilibrium dialysis apparatus (cell) to equilibrate over time with an acceptor compartment. Ono, N., Hirayama, F., Arima, H., Uekama, K. “Determination of Stability Constant of β-Cyclodextrin Complexes Using the Membrane Permeation Technique and the Permeation Behavior of Drug Competing Agent-β-Cyclodextrin Ternary Systems” Eur. J. Pharm. Sci. 1999 9:133-139. The acceptor cell contains no ligand. The membrane is semi-permeable allowing the typically low molecular weight substrates to freely diffuse, while the cyclodextrin (MW=2163) remains in the donor compartment. Sampling from both compartments over time yields a time-concentration profile of substrate in both the donor and acceptor compartments of the dialysis cell.
A mathematical model describing the diffusion rate of drug across the membrane can be derived for systems containing two or more components in solution. The dialysis rate and binding constant for the substrates are obtained by resolving the equation using nonlinear curve fitting software. Depending on the interactions between the components it is possible to describe the competitive binding that occurs in the solution. The equilibrium binding constant is a measure of the relative concentration of meta-cresol bound to SBE-CD according to the chemical equilibrium equation below: S=meta-cresol, L=SBE-CD. S:L indicates the complex formed between meta-cresol and SBE-CD.
The initial experiments established the equilibrium dialysis flux rates for compound of Formula Ia and meta-cresol across the 500 MWCO dialysis membrane. Three different concentrations of compound of Formula Ia were initially loaded into the donor side of the dialysis well. Samples were withdrawn at various time intervals and concentration of free component was measured using HPLC. […] The smoothed line was a fit to the data using the model for a unitary system presented in the discussion. The equilibrium point for all these control experiments was reached after 50% of the total drug was distributed uniformly across the donor and acceptor sides of the well. This asymptotic approach to equilibrium was modeled and the dialysis rates were calculated, Table II.
The primary method of analyzing the data was to perform calculations from equilibrium dialysis data, as described below. In particular, the rate of diffusion across the membrane was calculated using the following equations:
The rate of diffusion from the donor phase is defined by the following relationship: [D]t−[D]eq=([D]0−[D]eq)e^(−2kt) (1)
Rate of diffusion into the Acceptor Phase: [D]eq−[D]t=[D]eqe^(−2kt) (2) wherein
The basis of calculation in the presence of SBE-CD is to assume that complexation occurs only in the donor phase according to the standard complexation reaction:
The value for CyDF may be substituted into equation 8. […]

[3] = Stability measurements (accelerated stability); settings: 3 mg/mL meta-cresol, 100 mg/mL SBE-CD, 10 mgA/mL compound of Formula Ia
Method: Stability Measurements. Potential lead formulations were evaluated under various accelerated stability conditions in order to assess potency and purity of compound of Formula Ia, preservative content and SBE-CD content. For example, in one accelerated stability study, potential lead formulations were placed in stability ovens to measure short-term thermal stability. […] Purity and potency assays to measure compound of Formula Ia, as well as antimicrobial preservatives and SBE-CD content, were performed using validated HPLC methodology. SBE-CD was assayed using GTP 5984.

[4] = Calculated non-sequestered concentrations in formulations; settings: preferred formulation: 10 mgA/mL compound, 63 mg/mL SBE-CD, 3.3 mg/mL meta-cresol, pH 4.4
Source text: These constants were used to calculate the concentration of non-sequestered meta-cresol in the formulations tested for anti-microbial efficacy.
The appearance of a plateau at the higher concentrations is only due to the limitation in the bactericidal efficacy measurement method. As the method consists in evaluating the population not killed by the preservative, when the whole population is dead (i.e. none is detectable any more ˜100%) the figure quoted is of the form: a log reduction greater than a value usually between 3 and 5.
The formulations were analyzed for preservative effectiveness.

[5] = binary, approximate ratio 1:1, Compound of Formula Ia 1.0, SBE-CD 1.0 mM
[6] = binary, approximate ratio 1:2, Compound of Formula Ia 0.5, SBE-CD 1.0 mM
[7] = binary, approximate ratio 1:4, Compound of Formula Ia 0.25, SBE-CD 1.0 mM
[8] = ternary, approximate ratio 1:1, Compound of Formula Ia 1.0, Meta-cresol 1.0 mM, SBE-CD 1.0 mM
[9] = ternary, approximate ratio 1:2, Compound of Formula Ia 0.5, Meta-cresol 0.5 mM, SBE-CD 1.0 mM
[10] = ternary, approximate ratio 1:4, Compound of Formula Ia 0.25, Meta-cresol 0.25 mM, SBE-CD 1.0 mM

Structure (SMILES): COc1ccc(C(C)(C)C)cc1CN[C@H]1C2CCN(CC2)[C@H]1C(c1ccccc1)c1ccccc1 [compound of Formula Ia]
- binding constant with SBE-CD [1]: 1040 M⁻¹
- binding constant ([1]; pH 4.4): 1040 M⁻¹
- drug binding constant greater than preservative ([2]; binary systems with SBE-CD): 13 fold
- Keq [2, 5]: 740 M⁻¹
- k [2, 5]: 0.015 h⁻¹
- Keq [2, 6]: 1092 M⁻¹
- k [2, 6]: 0.013 h⁻¹
- Keq [2, 7]: 1444 M⁻¹
- k [2, 7]: 0.012 h⁻¹
- binding constant with SBE-CD ([2]; equilibrium dialysis method, binary systems, drug ±352 M−1, n=3, preservative ±7 M−1): 1092 M⁻¹
- Keq [2, 8]: 690 M⁻¹
- k [2, 8]: 0.018 h⁻¹
- Keq [2, 9]: 720 M⁻¹
- k [2, 9]: 0.013 h⁻¹
- Keq [2, 10]: 520 M⁻¹
- k [2, 10]: 0.011 h⁻¹
- CONTENT (% INTENT) ([3]; 5° C., 1 week, Amber-Treated): 97 % INTENT
- CONTENT (% INTENT) ([3]; 5° C., 1 week, Amber-Untreated): 96 % INTENT
- CONTENT (% INTENT) ([3]; 5° C., 3 weeks, Amber-Treated): 96 % INTENT
- CONTENT (% INTENT) ([3]; 5° C., 3 weeks, Amber-Untreated): 95 % INTENT
- CONTENT (% INTENT) ([3]; 5° C., 6 weeks, Amber-Treated): 95 % INTENT
- CONTENT (% INTENT) ([3]; 5° C., 6 weeks, Amber-Untreated): 94 % INTENT
- CONTENT (% INTENT) ([3]; 5° C., 12 weeks, Amber-Treated): 94 % INTENT
- CONTENT (% INTENT) ([3]; 5° C., 12 weeks, Amber-Untreated): 94 % INTENT
- CONTENT (% INTENT) ([3]; 50° C., 1 week, Amber-Treated): 95 % INTENT
- CONTENT (% INTENT) ([3]; 50° C., 1 week, Amber-Untreated): 96 % INTENT
- CONTENT (% INTENT) ([3]; 50° C., 3 weeks, Amber-Treated): 95 % INTENT
- CONTENT (% INTENT) ([3]; 50° C., 3 weeks, Amber-Untreated): 93 % INTENT
- CONTENT (% INTENT) ([3]; 50° C., 6 weeks, Amber-Treated): 96 % INTENT
- CONTENT (% INTENT) ([3]; 50° C., 6 weeks, Amber-Untreated): 94 % INTENT
- CONTENT (% INTENT) ([3]; 50° C., 12 weeks, Amber-Treated): 95 % INTENT
- CONTENT (% INTENT) ([3]; 70° C., 1 week, Amber-Treated): 94 % INTENT
- CONTENT (% INTENT) ([3]; 70° C., 1 week, Amber-Untreated): 94 % INTENT
- CONTENT (% INTENT) ([3]; 70° C., 2 weeks, Amber-Treated): 94 % INTENT
- CONTENT (% INTENT) ([3]; 70° C., 2 weeks, Amber-Untreated): 94 % INTENT
- CONTENT (% INTENT) ([3]; 70° C., 3 weeks, Amber-Treated): 92 % INTENT
- CONTENT (% INTENT) ([3]; 70° C., 3 weeks, Amber-Untreated): 94 % INTENT
- CONTENT (% INTENT) ([3]; 70° C., 6 weeks, Amber-Treated): 92 % INTENT
- CONTENT (% INTENT) ([3]; 70° C., 6 weeks, Amber-Untreated): 93 % INTENT
- CONTENT (% INTENT) ([3]; 70° C., 12 weeks, Amber-Treated): 93 % INTENT
- CONTENT (% INTENT) ([3]; 70° C., 12 weeks, Amber-Untreated): 93 % INTENT
- CONTENT (% INTENT) ([3]; ICH Photostability, 1X ICH UV/FI, Amber-Treated): 92 % INTENT
- CONTENT (% INTENT) ([3]; ICH Photostability, 1X ICH UV/FI, Amber-Untreated): 93 % INTENT
- loss / potency decrease ([3]; after 12 weeks at 70° C., relative to 1 week at 5° C.): 3%
- calculated non-sequestered concentration [4]: 1.4 mg/mL
